Results taken from US9463242B2, “Methods for treating prostate cancer” (UNIVERSITY OF ROCHESTER, priority 2011, dated 2016).
“Also recorded” adds a separate entry of the source. Read-outs that look alike come from different tables or passages of the source.

Columns and labels:
[1] = system: PCa S/P cells (LNCaP CD133+); assay: MTT growth assay of prostate cancer S/P cells treated with inhibitors; format: cell-based, human; settings: for IC50: Homo sapiens, LNCaP; for inhibitory effect on proliferation of the S/P cells: used individually
Procedure: For an MTT assay, cells were incubated in 12- or 24-well culture plates (10^5-10^3 cells/well) and cultured. At 2, 4, and 6 days, 3-(4,5-dimethylthiazol-2-yl)-2,5-diphenyltetrazolium bromide (MTT; 0.5 mg/mL; Sigma) was added. After 2 hours of reaction, absorbances at 570 nm were measured. For soft agar colony formation assay, cell suspension (1×10^4 cells/well in 6 well culture plates) of mixture of 1.5% agarose (Cambrex Bio Science Rockland, Ill.) and 2× medium (2 ml) was overlaid onto the solidified mixture of agarose base (final agarose concentration will be 0.75%). Two mL of normal medium containing various concentrations of DHT was added on top of the solidified agarose cell layer. All conditions were performed in triplicate. The plates were incubated at 37° C. in a humidified incubator for 21 days. The colonies developed were visualized by staining with 1% crystal violet. The colonies larger than 1 mm in diameter were counted. For sphere formation assay, a single cell suspension (1×10^3, in 50 μl medium) was mixed with cold Matrigel 50 μl (kept on ice) and the mixture was placed along the rim of the 24 well with minimum triplicate experiments. The culture plates were placed in a 37° C. incubator for 10 min to let the mixture solidify and 500 μl medium was then added into the well. Cells were grown in 5% RPMI (for human PCa S/P cells) and epithelial basal medium (PrEBM) (Lonza) supplemented with growth supplement (Lonza) (for mouse cells) with addition of various concentrations of DHT (1 or 10 nM). Spheres numbers were counted after 7 to 14 days under Olympus light microscope and size differences were also examined.
The effect of combined use of these molecules to block self-renewal/proliferation of the S/P cells was tested. […] The effect of a combinations of two drugs selected among three drugs, LY294002 (inhibitor of Akt pathway), γ-TT, and 5-AZA was tested. […] The test results of the combination therapies using soft agar (FIG. 19C) and sphere formation assays (FIG. 19D) confirmed the MTT results. One method of two drug combination therapy was selected based on these three growth assays. This combination is the use of γ-TT and 5-AZA. From all the in vitro tests including an LD test, a minimum dose of these drugs that kills S/P cells was determined. This strategy was used for an in vivo study. When tumors developed the mice were castrated and ASC-J9 was injected, Two or three combinations of the drugs that target S/P population cells were administered. A tumor development curve indicated the recurrence of castration resistant tumors.

[2] = system: AR expression in LNCaP CD133+ cells; assay: Induction of AR expression in LNCaP CD133+ cells; format: cell-based, human
AR = target: T1, AR (Homo sapiens, UniProt P10275); settings: stated as known; cited from earlier work
T1 sequence (P10275 1-920): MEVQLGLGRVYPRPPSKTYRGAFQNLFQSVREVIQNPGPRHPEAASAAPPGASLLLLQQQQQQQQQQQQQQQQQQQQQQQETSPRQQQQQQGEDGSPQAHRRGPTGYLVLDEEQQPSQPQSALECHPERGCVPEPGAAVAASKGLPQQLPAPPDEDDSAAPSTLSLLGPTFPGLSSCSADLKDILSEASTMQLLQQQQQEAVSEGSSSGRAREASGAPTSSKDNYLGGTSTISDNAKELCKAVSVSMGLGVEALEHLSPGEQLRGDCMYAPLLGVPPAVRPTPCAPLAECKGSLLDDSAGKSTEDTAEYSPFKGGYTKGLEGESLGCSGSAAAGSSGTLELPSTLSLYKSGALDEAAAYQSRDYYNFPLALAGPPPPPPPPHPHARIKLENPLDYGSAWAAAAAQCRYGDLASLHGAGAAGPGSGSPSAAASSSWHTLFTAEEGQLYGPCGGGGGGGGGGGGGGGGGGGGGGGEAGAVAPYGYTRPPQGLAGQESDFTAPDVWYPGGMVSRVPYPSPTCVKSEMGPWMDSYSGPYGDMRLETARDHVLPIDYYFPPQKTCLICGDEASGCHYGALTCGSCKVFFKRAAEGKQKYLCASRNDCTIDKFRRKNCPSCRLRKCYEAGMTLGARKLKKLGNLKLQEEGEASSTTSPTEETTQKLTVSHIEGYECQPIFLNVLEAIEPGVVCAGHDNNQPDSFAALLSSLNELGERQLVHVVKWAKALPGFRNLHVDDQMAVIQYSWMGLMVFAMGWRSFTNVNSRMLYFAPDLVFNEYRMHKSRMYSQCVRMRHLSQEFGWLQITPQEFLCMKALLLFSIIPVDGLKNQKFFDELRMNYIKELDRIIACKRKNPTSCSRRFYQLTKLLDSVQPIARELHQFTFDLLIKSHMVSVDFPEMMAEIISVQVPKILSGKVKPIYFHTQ

[3] = stated as known; cited from earlier work
LNCaP cells = assay: CD133+ population after continuous Casodex treatment, LNCaP; format: cell-based, human; settings: Casodex for 5 wks continuously
Procedure: (§1) In order to investigate whether S/P cell numbers increase after ADT/castration, LNCaP cells were treated with anti-androgen, Casodex, to mimic castration conditions in vitro. […] Similar experiments were performed with C4-2 and LAPC-4 cell lines.

C4-2 cells = assay: CD133+ population after Casodex treatment, C4-2; format: cell-based, human; settings: C4-2, Casodex treatment
Procedure: as §1

[4] = system: primary cultured human stromal cells (ps-1); assay: TGF-β1 treatment of primary cultured human prostate stromal cells, α-SMA and calponin staining; format: cell-based; settings: different concentrations of TGF-β1 for 1 to 5 days
Procedure: (§2) In FIG. 5a, the expression of TGF-β1 was investigated by IHC staining. The decreased expression of TGF-β1 was found in pes-ARKO epithelium. […] In FIG. 5c, to evaluate the TGF-β1 effect on the differentiation of smooth muscle cells, the primary cultured human prostate stromal cells were treated with different doses of TGF-β1. The expression of smooth muscle α-actin, as shown in FIG. 5c and FIG. 5d, and calponin, as shown in FIG. 5e and FIG. 5f, were detected following treatment for 1 to 5 days.
(§3) The expression of TGF-β1 (FIG. 5a) and TGF-β1 downstream signals was detected by immunohistochemistry (IHC) staining in 24 week old wild type and pes-ARKO prostate epithelium. The TGF-β1 expression and its downstream signals were lower in the epithelium of pes-ARKO mice than those from wild type mice. […] MyoD and Myogenin expression, which are deeply involved in the stromal smooth muscle maturation and differentiation, was also modulated by TGF-β1 stimulation (FIG. 5g).

[5] = system: MyoD and Myogenin expression in primary cultured human prostate stromal cells; assay: Expression of smooth muscle maturation genes after TGF-β1 treatment; format: cell-based; settings: 10 ng/ml TGF-β1 treatment
Procedure: as §2, §3

Nc1ncn([C@H]2C[C@H](O)[C@@H](CO)O2)c(=O)n1 [5-AZA, 5-aza-2′-deoxycytidine]
IC50 ([1]; read-out: IC50 of the individual compound): 2500 to 5000 nM
inhibitory effect on proliferation of the S/P cells [1]: inhibits proliferation
AR expression [2]: Induction of AR expression

COc1ccc(/C=C/C(=O)/C=C(O)/C=C/c2ccc(OC)c(OC)c2)cc1OC [ASC-J9]
AR degrading activity (AR): AR degrading activity
toxicity [3]: without toxicity

CC(O)(CS(=O)(=O)c1ccc(F)cc1)C(=O)Nc1ccc(C#N)c(C(F)(F)F)c1 (stereo not drawn) [Casodex]
CD133+ population cells (LNCaP cells): significantly increased; also recorded: increase
CD133+ population cells (C4-2 cells): not as significant as in LNCaP cells

O=c1cc(N2CCOCC2)oc2c(-c3ccccc3)cccc12 [LY294002]
IC50 ([1]; LY294002 + γ-TT + 5-AZA together, S/P cells, MTT, read-out: IC50 of the individual compound when three compounds were used together): < 1000 nM
IC50 ([1]; compound used alone, S/P cells, MTT, read-out: IC50 of the individual compound): 2500 to 5000 nM

CC(C)=CCC/C(C)=C/CC/C(C)=C/CC[C@]1(C)CCc2cc(O)c(C)c(C)c2O1 [γ-TT, γ-tocotrienol]
inhibitory effect on proliferation of the S/P cells [1]: inhibitory effect

TGF-β1: TGF-β1 protein used to treat primary cultured human prostate stromal cells
number of mature stromal smooth muscle cells (α-SMA and calponin staining) [4]: significantly dependent on the higher concentration and longer duration
MyoD and Myogenin expression [5]: modulated
